Like-named read-outs stand apart in the source and are kept apart here.
Legend:
Botrytis cinerea = assay: Sterilization test (growth inhibition of Botrytis cinerea in potato dextrose medium, 96-well microplate, turbidity 405 nm); type: cell-based; conditions: for inhibition at 10 ppm / inhibition at 0.4 ppm / inhibition at 2 ppm / inhibition at 0.08 ppm / inhibition at 0.02 ppm: Botrytis cinerea, read-out: Growth inhibition rate; for inhibition at 0.4 ppm: drug II alone 0.4 ppm
Method: The solutions thus obtained were mixed to prepare fungicidal compositions.
Conidia of Botrytis cinerea were added to and dispersed in a potato dextrose culture medium. A fungicidal composition was added thereto and mixed. This was dispensed in a 96-well microplate and cultured at 20° C. for 3 days in a dark setting. Then, the turbidity was measured at a wavelength of 405 nm in a microplate reader. From comparison with the measured value of turbidity in the case of non-treatment (without the addition of the fungicidal composition), the growth inhibition rate of Botrytis cinerea (%) was calculated. The test was carried out in duplicate. Further, the expected value of the growth inhibition was calculated based on Colby's equation.
(§1) In addition, the Colby's equation is E=M+N−MN/100. Here, E is the expected value of a growth inhibition rate (%), M is the growth inhibition rate (%) calculated from the measurement with the use of the drug I alone, and N is the growth inhibition rate (%) calculated from the measurement with the use of the drug II alone. Additionally, in Tables, the expected values with the use of the drug alone were not shown, because they were the same as the values calculated from the measurement.
At the concentrations shown in Tables 6 to 8, the drug I and the drug II were dissolved separately in dimethyl sulfoxide. The obtained solution was mixed to prepare a fungicidal composition.
Using the same methods as in Example 1 and Comparative Example 1, the sterilization test was carried out. Additionally, in Tables, the expected values with the use of the drug alone were not shown, because they were the same as the values calculated from the measurement.

[1] = system: cucumber gray mold disease pathogens (Botrytis cinerea); assay: Control test for cucumber gray mold disease (sprayed cucumber seedlings); type: in vivo; conditions: for pest or weed control at 25 ppm: drug II alone 25 ppm; for pest or weed control at 400 ppm: drug II alone 400 ppm
Method: The drug I and the drug II were dissolved in an organic solvent and a surfactant, and the prepared mixed emulsifiable concentrate was diluted with water to a predetermined concentration, and sprayed to cucumber seedlings that had been cultivated in unglazed pots (cultivar “Sagamihanjiro” cotyledon stage). Additionally, in Tables, the symbol A indicating the drug I represents a nitrogen-containing heterocyclic compound represented by the formula (A), the symbol B indicating the drug I represents a nitrogen-containing heterocyclic compound represented by the formula (B), and the symbol C indicating the drug I represents a nitrogen-containing heterocyclic compound represented by the formula (C). Further, the number indicating the drug II represents each of the compounds described in the numbers described above. Additionally, “-” in Tables represents that the drug was not used.
After air-drying at room temperature, a suspension of the conidia of cucumber gray mold disease pathogens (Botrytis cinerea) was inoculated by dropwise addition and held in a dark room at 20° C. with a high humidity for 3, 4, or 5 days. By investigation on the state of lesion appearance in leaves with comparison with a non-treatment case, the controlling effect was determined. The test was carried out in duplicate. In addition, the expected value of the controlling effect was calculated based on Colby's equation.
At the same time, in Comparative Example, in the case of using the drug I only and the case of using the drug II only, the test was carried out by the same method.
as §1, with “Additionally,” for “In addition,”, “the controlling effect” for “a growth inhibition rate”, “controlling effect” for “growth inhibition rate”, “were” for “were not shown, because they were”, “measurement, and were thus not shown.” for “measurement.”

[2] = Example 2 (Tables 6-8), drug II alone 10 ppm
[3] = Example 1 (Tables 1-5), drug II alone 10 ppm
[4] = Example 1 (Tables 1-5), drug II alone 2 ppm
[5] = Example 1 (Tables 1-5), drug II alone 0.08 ppm
[6] = Example 1 (Tables 1-5), drug II alone 0.02 ppm
[7] = Table 10, 5 days after inoculation, drug II alone 1.6 ppm
[8] = Botrytis cinerea, 96 h, 4 days after inoculation, read-out: Control effect (%)

## CCOc1ccc(C(C)(C)COCc2cccc(Oc3ccccc3)c2)cc1 [Drug 52, Etofenprox]
Botrytis cinerea; [2]
  inhibition at 10 ppm: 4%

## CC(C)OC(=O)N[C@H](C(=O)N[C@H](C)c1nc2ccc(F)cc2s1)C(C)C [Drug 8, Benthiavalicarb-isopropyl]
Botrytis cinerea; [3]
  inhibition at 10 ppm: 0%

## CC1=C(C(=O)Nc2ccccc2)SCCO1 [Drug 23, Carboxin]
Botrytis cinerea; Example 1 (Tables 1-5)
  inhibition at 0.4 ppm: 0%

## CCNC(=O)NC(=O)/C(C#N)=N/OC [Drug 7, Cymoxanil]
Botrytis cinerea; [4]
  inhibition at 2 ppm: 0%

## CC(C)Oc1cccc(NC(=O)c2ccccc2C(F)(F)F)c1 [Drug 18, Flutolanil]
Botrytis cinerea; [3]
  inhibition at 10 ppm: 0%

## CC(C)(C)C(O)(CCc1ccc(Cl)cc1)Cn1cncn1 (centres unmarked) [Drug 22, Tebuconazole]
Botrytis cinerea; [5]
  inhibition at 0.08 ppm: 34%

## CN/C(=N/CC1CCOC1)N[N+](=O)[O-] (centres unmarked) [Drug 51, Dinotefuran]
Botrytis cinerea; [2]
  inhibition at 10 ppm: 0%

## O=C(Cc1ccccc1)N/C(=N\OCC1CC1)c1c(C(F)(F)F)ccc(F)c1F [Drug 1, Cyflufenamid]
Botrytis cinerea; [3]
  inhibition at 10 ppm: 9%
[1]; Botrytis cinerea, 120 h, Table 10, 5 days after inoculation, read-out: Control effect
  pest or weed control at 25 ppm: 0%

## Fc1ccc(Oc2ccnc3cc(Cl)cc(Cl)c23)cc1 [Drug 17, Quinoxifen]
Botrytis cinerea; [4]
  Growth inhibition rate: 0%

## CCCCCCCCCCCCc1ccc(S(=O)(=O)O)cc1.CCCCCCCCCCCCc1ccc(S(=O)(=O)O)cc1.CCCCCCCCCCCCc1ccc(S(=O)(=O)O)cc1.NC(N)=NCCCCCCCCNCCCCCCCCN=C(N)N [Drug 5, Iminoctadine albesilate]
Botrytis cinerea; [6]
  Growth inhibition rate: 6%
[1]; Table 10, 5 days after inoculation, drug II alone 0.4 ppm
  Control effect: 0%
[1]; [7]
  Control effect: 0%

## Cc1c(Cl)cc(-c2ccc(=O)[nH]n2)cc1Cl [Drug 19, Diclomezin]
Botrytis cinerea; [3]
  Growth inhibition rate: 0%

## O=C(NCCc1ncc(C(F)(F)F)cc1Cl)c1ccccc1C(F)(F)F [Drug 30, Fluopyram]
Botrytis cinerea; [5]
  inhibition at 0.08 ppm: 16%

## C/C(=N\C#N)N(C)Cc1ccc(Cl)nc1 [Drug 42, Acetamiprid]
Botrytis cinerea; [2]
  inhibition at 10 ppm: 0%
[1]; [8]
  pest or weed control at 25 ppm: 0%
[1]; Botrytis cinerea, 120 h, 5 days after inoculation, read-out: Control effect (%)
  pest or weed control at 400 ppm: 0%

## O=C(NCc1ncc(C(F)(F)F)cc1Cl)c1c(Cl)cccc1Cl [Drug 11, Fluopicolide]
Botrytis cinerea; [3]
  Growth inhibition rate: 6%

## O=[N+]([O-])NC1=NCCN1Cc1ccc(Cl)nc1 [Drug 45, Imidacloprid]
Botrytis cinerea; [2]
  inhibition at 10 ppm: 0%

## CO/C=C(/C(=O)OC)c1ccccc1Oc1cc(Oc2ccccc2C#N)ncn1 [Drug 27, Azoxystrobin]
Botrytis cinerea; [5]
  Growth inhibition rate: 30%

## CC(C)NC(=O)N1CC(=O)N(c2cc(Cl)cc(Cl)c2)C1=O [Drug 36, Iprodione]
Botrytis cinerea; Example 1 (Tables 1-5)
  inhibition at 0.4 ppm: 39%

## O=C(Nc1ccccc1-c1ccc(Cl)cc1)c1cccnc1Cl [Drug 58, Boscalid]
[1]; Botrytis cinerea, 96 h, 4 days after inoculation, drug II alone 0.4 ppm, read-out: Control effect (%)
  pest or weed control at 0.4 ppm: 0%
[1]; Botrytis cinerea, 96 h, 4 days after inoculation, drug II alone 1.6 ppm, read-out: Control effect (%)
  pest or weed control at 1.6 ppm: 0%
[1]; Botrytis cinerea, 96 h, 4 days after inoculation, drug II alone 6.3 ppm, read-out: Control effect (%)
  pest or weed control at 6.3 ppm: 39%

## O=C1C2CC=CCC2C(=O)N1SC(Cl)(Cl)Cl (centres unmarked) [Drug 33, Captan]
Botrytis cinerea; [6]
  inhibition at 0.02 ppm: 28%

## CC1=NNC(=O)N(/N=C/c2cccnc2)C1 [Drug 55, Pymetrozine]
Botrytis cinerea; [2]
  inhibition at 10 ppm: 3%

## N#Cc1c[nH]cc1-c1cccc2c1OC(F)(F)O2 [Drug 20, Fludioxonil]
Botrytis cinerea; [6]
  inhibition at 0.02 ppm: 39%

## CC(=O)O.CC(=O)O.CC(=O)O.NC(N)=NCCCCCCCCNCCCCCCCCN=C(N)N [Drug 4, Iminoctadine acetate]
Botrytis cinerea; [6]
  Growth inhibition rate: 27%
[1]; [7]
  Control effect: 0%
[1]; Table 10, 5 days after inoculation, drug II alone 6.3 ppm
  Control effect: 41%

## CN(C)C(=S)SSC(=S)N(C)C [Drug 24, Thiram]
Botrytis cinerea; [5]
  inhibition at 0.08 ppm: 30%

## CCC(C)(NC(=O)c1cc(Cl)c(C)c(Cl)c1)C(=O)CCl (centres unmarked) [Drug 12, Zoxamide]
Botrytis cinerea; Example 1 (Tables 1-5)
  inhibition at 0.4 ppm: 3%

## CON=C(C(=O)OC)c1ccccc1CON=C(C)c1cccc(C(F)(F)F)c1 [Drug 26, Trifloxystrobin]
Botrytis cinerea; [5]
  inhibition at 0.08 ppm: 32%

## COc1cc(C)c(C(=O)c2c(OC)ccc(Br)c2C)c(OC)c1OC [Drug 16, Metrafenone]
Botrytis cinerea; [3]
  inhibition at 10 ppm: 0%

## Cc1ccc(-c2c(Cl)nc(C#N)n2S(=O)(=O)N(C)C)cc1 [Drug 14, Cyazofamid]
Botrytis cinerea; [3]
  inhibition at 10 ppm: 0%

## Cc1cc(C(F)(F)F)nn1CC(=O)N1CCC(c2nc(C(=O)N(C)C3CCCc4ccccc43)cs2)CC1 (centres unmarked) [Drug 39]
Botrytis cinerea; [3]
  inhibition at 10 ppm: 13%

## CN/C(=N\[N+](=O)[O-])NCc1cnc(Cl)s1 [Drug 47, Clothianidin]
Botrytis cinerea; [2]
  inhibition at 10 ppm: 4%

## CCO[PH](=O)O [Drug 13, Fosetyl]
Botrytis cinerea; [5]
  inhibition at 0.08 ppm: 2%

## N#Cc1nn(-c2c(Cl)cc(C(F)(F)F)cc2Cl)c(N)c1[S+]([O-])C(F)(F)F (centres unmarked) [Drug 53, Fipronil]
Botrytis cinerea; [2]
  inhibition at 10 ppm: 12%

## COP(=S)(OC)Oc1c(Cl)cc(C)cc1Cl [Drug 35, Tolclofos-methyl]
Botrytis cinerea; [3]
  inhibition at 10 ppm: 35%

## O=[N+]([O-])c1cc(C(F)(F)F)c(Cl)c([N+](=O)[O-])c1Nc1ncc(C(F)(F)F)cc1Cl [Drug 31, Fluazinam]
Botrytis cinerea; [6]
  inhibition at 0.02 ppm: 20%

## Cc1nc(C(F)(F)F)c(C(=O)Nc2c(Br)cc(OC(F)(F)F)cc2Br)s1 [Drug 56, Thifluzamide]
Botrytis cinerea; [2]
  inhibition at 10 ppm: 28%

## CN1COCN(Cc2cnc(Cl)s2)/C1=N\[N+](=O)[O-] [Drug 46, Thiamethoxam]
Botrytis cinerea; [2]
  inhibition at 10 ppm: 0%

## CO/N=C(/C(=O)OC)c1ccccc1COc1ccccc1C [Drug 28, Kresoxim-methyl]
Botrytis cinerea; [5]
  inhibition at 0.08 ppm: 20%

## CC(C)OC(=O)C(C(=O)OC(C)C)=C1SCCS1 [Drug 41, Isoprothiolane]
Botrytis cinerea; [2]
  inhibition at 10 ppm: 10%

## N#Cc1c(Cl)c(Cl)c(Cl)c(C#N)c1Cl [Drug 25, Chlorothalonil]
Botrytis cinerea; [5]
  inhibition at 0.08 ppm: 4%

## COCC(=O)N(c1c(C)cccc1C)C(C)C(=O)OC (centres unmarked) [Drug 6, Metalaxyl]
Botrytis cinerea; [3]
  inhibition at 10 ppm: 0%

## CC[S+]([O-])c1c(C#N)nn(-c2c(Cl)cc(C(F)(F)F)cc2Cl)c1N (centres unmarked) [Drug 54, Ethiprole]
Botrytis cinerea; [2]
  inhibition at 10 ppm: 2%

## CS/C(C)=N\OC(=O)N(C)SN(C)C(=O)O/N=C(\C)SC [Drug 49, Thiodicarb]
Botrytis cinerea; [2]
  inhibition at 10 ppm: 0%

## CCCCCCCCc1c(CC)nc2ncnn2c1N [Drug 10, Ametoctradin]
Botrytis cinerea; [3]
  Growth inhibition rate: 0%

## O=C1c2ccccc2C(=O)N1SC(Cl)(Cl)Cl [Drug 37, Folpet]
Botrytis cinerea; [6]
  inhibition at 0.02 ppm: 10%

## CC1COC(Cn2cncn2)(c2ccc(Oc3ccc(Cl)cc3)cc2Cl)O1 (centres unmarked) [Drug 21, Difenoconazole]
Botrytis cinerea; Example 1 (Tables 1-5)
  inhibition at 0.4 ppm: 36%

## Manzeb [Drug 32]
Botrytis cinerea; [4]
  Growth inhibition rate: 11%

## CCOCn1c(-c2ccc(Cl)cc2)c(C#N)c(Br)c1C(F)(F)F [Drug 59, Chlorfenapyr]
[1]; [8]
  pest or weed control at 400 ppm: 0%

## Cc1cc(C2CC2)nc(Nc2ccccc2)n1 [Drug 34, Cyprodinil]
Botrytis cinerea; [6]
  inhibition at 0.02 ppm: 0%

## CCCOc1nc2ccc(I)cc2c(=O)n1CCC [Drug 15, Proquinazid]
Botrytis cinerea; [3]
  Growth inhibition rate: 0%

## CNC(=O)/C(=N/OC)c1ccccc1CO/N=C(C)/C(=N/OC)C(/C)=N/OC [Drug 40, Orysastrobin]
Botrytis cinerea; [2]
  Growth inhibition rate: 58%

## CCOP(=S)(OCC)Oc1nc(Cl)c(Cl)cc1Cl [Drug 48, Chlorpyrifos]
Botrytis cinerea; [2]
  inhibition at 10 ppm: 0%

## CC(C)N1C(=O)N(c2ccccc2)CS/C1=N\C(C)(C)C [Drug 57, Buprofezin]
Botrytis cinerea; [2]
  inhibition at 10 ppm: 0%

## C[C@@]1(c2ccc(Oc3ccccc3)cc2)OC(=O)N(Nc2ccccc2)C1=O (racemic) [Drug 9, Famoxadone]
Botrytis cinerea; [4]
  inhibition at 2 ppm: 0%

## Spinosad [Drug 50]
Botrytis cinerea; [2]
  Growth inhibition rate: 0%
